pEC50: −log10 of the molar value. Like-named read-outs stand apart in the source and are kept apart here.
Experiments:
[1] = system: MDR1 (P-gp); experiment: in vitro; conditions: dog, MDCK-MDR1, pH 7.4
[2] = system: SMN protein in spinal muscular atrophy (SMA) patient fibroblasts (GM03813, Coriell); experiment: SMN protein assay, Mesoscale Discovery (MSD); assay type: cell-based, human; conditions: for pEC50: read-out: SMN2 protein EC50
Procedure: Example A12: SMN Protein Assay
Compounds are tested on spinal muscular atrophy (SMA) patient fibroblasts (GM03813, Coriell) at doses ranging from 2.5 μM to 0.6 nM. 7000 cells/well are seeded in 96-well plates. Compounds are incubated for 48 hours and the cells were lysed with 100 μL of lysis buffer. 20 μL of lysate is used for SMN protein measurement by Mesoscale Discovery (MSD) assay developed by PharmOptima (Michigan). A standard curve prepared with SMN protein ranging from 1 μg/ml to 19.5 pg/ml is used in each MSD plate to calculate the absolute SMN protein amount in each sample.

[3] = system: MDR1-MDCK cell monolayers; conditions: dog, MDCK-MDR1, 120 min, 5 μM, pH 7.4
[4] = system: mHTT protein in GM04724 (CAG 70/20) Huntington's disease patient lymphoblast cells; experiment: mHTT protein assay, 2B7-MW1 assay via Mesoscale Discovery (MSD); assay type: cell-based, human
Procedure: Example A10: mHTT Protein Assay
Compounds are tested on GM04724 (CAG 70/20) Huntington's disease patient lymphoblast cells at doses ranging from 10 μM to 0.6 nM. 4,500 cells/well are seeded in 384 well plates. One plate replica is carried out for parallel viability testing by CellTiter Glo (CTG). Compounds are incubated for 48 hours. mHTT protein levels are assessed by the 2B7-MW1 assay via Mesoscale Discovery (MSD) as previously reported (Macdonald et al., 2014). The antibody pair is comprised of previously characterized monoclonals (2B7 and MW1) interrogating two regions for HTT conformation and biological properties: the N, 17 domain and the polyQ domain (Baldo et al., 2012; Ko et., 2001). 2B7-MW1 is […] specific levels of HTT at the time of treatment. 2B7-MW1 is dependent on polyQ expansion (e.g., the higher the expansion the higher the signal) and on mHTT size (e.g., a similar polyQ will give higher signal with smaller HTT size). The viability readout is carried out by CTG according to the manufacturer's instructions.

[5] = system: SMN FL and SMN Δ7 in spinal muscular atrophy (SMA) patient fibroblasts (GM03813, Coriell); experiment: Quantitative splicing assay (SMN), qPCR; assay type: cell-based, human; conditions: read-out: SMN2 Splicing FL EC50
Procedure: Spinal muscular atrophy (SMA) patient fibroblasts (GM03813, Coriell) are plated in 96-well plates at 50,000 cells/well. […] Treated cells are lysed and cDNA synthesized using the Fast Advanced Cells-to-Ct kit (Thermofisher A35378) according to the manufacturer's instructions. 2 μL of each cDNA are used in qPCR reactions. […] Reactions are run in a Quant Studio 6 qPCR instrument with default settings.

[6] = system: MDR1-MDCK cell monolayers; experiment: Blood-brain-barrier (BBB) penetration potential via MDCK-MDR1 permeability assay
[7] = system: MDR1 (P-gp); experiment: as above; conditions: dog; for efflux ratio at 120 min, 5 μM: MDCK-MDR1, pH 7.4, MDCK-MDR1: Efflux; for Papp A→B at 120 min, 5 μM: MDCK-MDR1, pH 7.4, MDCK-MDR1: Papp A-B; for Papp B→A at 120 min, 5 μM: MDCK-MDR1, pH 7.4, MDCK-MDR1: Papp B-A
[8] = system: MDR1; experiment: as above; conditions: dog, MDCK-MDR1, pH 7.4, MDCK-MDR1: Efflux, efflux ratio
[9] = SMA patient fibroblasts (GM03813), 48 hours
[10] = GM04724 (CAG 70/20) Huntington's disease patient lymphoblasts
[11] = Homo sapiens, Fibroblast, 24 h, SMA patient fibroblasts GM03813, 24 h, qPCR
[12] = SMA patient fibroblasts GM03813, 48 hours, MSD
[13] = GM04724 Huntington's disease patient lymphoblasts
[14] = Homo sapiens, Fibroblast, 24 h, SMA patient fibroblasts (GM03813), 24 h

Row | SMILES | pEC50 [2, 12] | MDCK-MDR1: % Recov A-B ([6]; A-B direction) [%] | MDCK-MDR1: % Recov B-A ([6]; B-A direction) [%] | Papp A→B at 120 min, 5 μM ([7]; A-B direction) [×10⁻⁶ cm/s] | Papp B→A at 120 min, 5 μM ([7]; B-A direction) [×10⁻⁶ cm/s] | pEC50 [4, 13] | efflux ratio at 120 min, 5 μM [8] | other results
1 | CN(c1ccc(-c2cc3cnccc3cc2O)nn1)[C@H]1C[C@@H]2CC(F)(F)[C@H](C1)N2 [Compound 126B, 7-(6-(((1R,3S,5S)-6,6-difluoro-8-azabicyclo[3.2.1]octan-3-yl)(methyl)amino)pyridazin-3-yl)isoquinolin-6-ol] |  |  |  |  |  |  |  | Papp A→B at 120 min, 5 μM [1]: 12.6 ×10⁻⁶ cm/s; Papp B→A at 120 min, 5 μM [1]: 39.4 ×10⁻⁶ cm/s; efflux ratio at 120 min, 5 μM [1]: 3; pEC50 [2, 9]: 6.30 to 7.00; MDCK-MDR1: % Recov A-B [3]: 75%; MDCK-MDR1: % Recov B-A [3]: 88%; mHTT protein EC50 [4, 10]: E (501 ≤ E ≤ 10.000)
2 | CN(c1ccc(-c2cc3ncccc3cc2O)nn1)[C@H]1C[C@@H]2CC(F)(F)[C@H](C1)N2 [Compound 46B, 7-(6-(((1R,3S,5S)-6,6-difluoro-8-azabicyclo[3.2.1]octan-3-yl)(methyl)amino)pyridazin-3-yl)quinolin-6-ol] | 7.30 to 7.80 | 68 | 86 | 32 | 31.6 | 6.30 to 7.00 |  | pEC50 [5, 11]: 6.30 to 7.00; efflux ratio at 120 min, 5 μM ([7]; efflux ratio): 1
3 | CN(c1ccc(-c2cc3cnccc3cc2O)nn1)[C@@H]1C[C@H]2CC(F)(F)[C@@H](C1)N2 [Compound 126A, 7-(6-(((1S,3R,5R)-6,6-difluoro-8-azabicyclo[3.2.1]octan-3-yl)(methyl)amino)pyridazin-3-yl)isoquinolin-6-ol] |  |  |  |  |  |  |  | pEC50 [5, 14]: 7.30 to 7.80; pEC50 [2, 9]: 7.82 to 11.00; MDCK-MDR1: % Recov A-B ([6]; A-B): 80%; MDCK-MDR1: % Recov B-A ([6]; B-A): 92%; efflux ratio at 120 min, 5 μM [7]: 3; Papp A→B at 120 min, 5 μM ([7]; A-B): 13.7 ×10⁻⁶ cm/s; Papp B→A at 120 min, 5 μM ([7]; B-A): 35.3 ×10⁻⁶ cm/s; pEC50 [4, 10]: 7.00 to 7.29
4 | CN(c1ccc(-c2cc3ncccc3cc2O)nn1)[C@@H]1C[C@H]2CC(F)(F)[C@@H](C1)N2 [Compound 46A, 7-(6-(((1S,3R,5R)-6,6-difluoro-8-azabicyclo[3.2.1]octan-3-yl)(methyl)amino)pyridazin-3-yl)quinolin-6-ol] | 7.30 to 7.80 | 68 | 89 | 31.7 | 29.2 | 7.30 to 7.80 |  | pEC50 [5, 11]: 5.00 to 6.30; efflux ratio at 120 min, 5 μM ([7]; efflux ratio): 1
5 | COc1cn(-c2ccc(-c3ccc(N(C)[C@H]4C[C@@H]5CC(F)(F)[C@H](C4)N5)nn3)c(O)c2)cn1 [Compound 19B, 2-(6-(((1R,3S,5S)-6,6-difluoro-8-azabicyclo[3.2.1]octan-3-yl)(methyl)amino)pyridazin-3-yl)-5-(4-methoxy-1H-imidazol-1-yl)phenol] | 7.00 to 7.29 | 91 | 88 | 12.2 | 63.3 |  | 5 | mHTT protein EC50 [4, 13]: E (501 ≤ E ≤ 10.000)
6 | CN(c1ccc(-c2cc3c(F)cn(C)c(=O)c3cc2O)nn1)[C@@H]1C[C@H]2CC[C@H](N2)[C@@H]1F [Compound 54A, 4-fluoro-6-(6-(((1S,2S,3R,5R)-2-fluoro-8-azabicyclo[3.2.1]octan-3-yl)(methyl)amino)pyridazin-3-yl)-7-hydroxy-2-methylisoquinolin-1(2H)-one] | 7.82 to 11.00 | 108 | 115 | 3.54 | 82.6 |  | 23 | pEC50 [5, 11]: 7.30 to 7.80
7 | CN(c1ccc(-c2ccc(-c3cnc(C#N)cn3)cc2O)nn1)[C@@H]1C[C@H]2CCC[C@H](N2)[C@@H]1F [Compound 28A, 5-(4-(6-(((1S,2S,3R,5R)-2-fluoro-9-azabicyclo[3.3.1]nonan-3-yl)(methyl)amino)pyridazin-3-yl)-3-hydroxyphenyl) pyrazine-2-carbonitrile] |  | 40 | 61 | 1.41 | 28.4 | 7.30 to 7.80 | 20 | SMN2 protein EC50 [2, 12]: E (501 ≤ E ≤ 10.000)
8 | CC(=O)N(C)c1ccc(-c2ccc(N(C)[C@H]3C[C@@H]4CC[C@@H](N4)[C@H]3F)nn2)c(O)c1 [Compound 35B, N-(4-(6-(((1R,2R,3S,5S)-2-fluoro-8-azabicyclo[3.2.1]octan-3-yl)(methyl)amino)pyridazin-3-yl)-3-hydroxyphenyl)-N-methylacetamide] | 7.82 to 11.00 | 103 | 99 | 0.23 | 42 |  | 181 | mHTT protein EC50 [4, 13]: E (501 ≤ E ≤ 10.000)
9 | CN(c1ccc(-c2cc3c(=O)n(C)ccc3s2)nn1)[C@@H]1C[C@H]2CC[C@H](N2)[C@@H]1F (single isomer, unassigned) [Compound 68A] | 7.00 to 7.29 | 92 | 78 | 0.41 | 45.6 | 6.30 to 7.00 | 111 | 
10 | CN(c1ccc(-c2ccc(C3=CCCC3)cc2O)nn1)[C@@H]1C[C@H]2CC[C@H](N2)[C@@H]1F [Compound 34A, 5-(cyclopent-1-en-1-yl)-2-(6-(((1S,2S,3R,5R)-2-fluoro-8-azabicyclo[3.2.1]octan-3-yl)(methyl)amino)pyridazin-3-yl)phenol] | 7.30 to 7.80 | 8 | 55 | 0.63 | 1.05 | 6.30 to 7.00 | 2 | 
11 | CN(C)C(=O)c1cc2cc(O)c(-c3ccc(N(C4CC4)[C@H]4C[C@@H]5CC[C@@H](N5)[C@H]4F)nn3)cc2o1 [Compound 86B, 6-(6-(cyclopropyl((1R,2R,3S,5S)-2-fluoro-8-azabicyclo[3.2.1]octan-3-yl)amino)pyridazin-3-yl)-5-hydroxy-N,N-dimethylbenzofuran-2-carboxamide] | 7.00 to 7.29 | 88 | 92 | 0.81 | 53.6 | 7.30 to 7.80 | 66 | 
12 | CN(c1ccc(-c2cc3cnccc3cc2O)nn1)[C@@H]1C[C@H]2CC[C@H](N2)[C@@H]1F (single isomer, unassigned) [Compound 7B] | 7.82 to 11.00 | 69 | 89 |  |  | 7.00 to 7.29 |  | pEC50 ([5]; SMA patient fibroblasts GM03813, 24 h, qPCR): 7.00 to 7.29; MDCK-MDR1: Papp A-B ([6]; A-B direction): 4.27 10^−6, cm/s; MDCK-MDR1: Papp B-A ([6]; B-A direction): 36.1 10^−6, cm/s; MDCK-MDR1: Efflux ([6]; efflux ratio): 8
13 | CN(c1ccc(-c2cc3ccncc3cc2O)nn1)[C@H]1C[C@@H]2CC(F)(F)[C@H](C1)N2 [Compound 125B, 6-(6-(((1R,3S,5S)-6,6-difluoro-8-azabicyclo[3.2.1]octan-3-yl)(methyl)amino)pyridazin-3-yl)isoquinolin-7-ol] |  |  |  |  |  |  |  | pEC50 [5, 14]: 7.30 to 7.80; pEC50 [2, 9]: 7.30 to 7.80; MDCK-MDR1: % Recov A-B ([6]; A-B): 67%; MDCK-MDR1: % Recov B-A ([6]; B-A): 81%; efflux ratio at 120 min, 5 μM [7]: 3; Papp A→B at 120 min, 5 μM ([7]; A-B): 15.6 ×10⁻⁶ cm/s; Papp B→A at 120 min, 5 μM ([7]; B-A): 53.2 ×10⁻⁶ cm/s; pEC50 [4, 10]: 7.00 to 7.29

Source: patent US12509460B2 (Skyhawk Therapeutics, Inc., priority 2019, dated 2025)
